Results reported in patent US20250368666A1, “INDAZOLE COMPOUNDS” (TYRA BIOSCIENCES, INC., priority 2022, published 2025).
pIC50, pKd: −log10 of the molar value. Counter-ions that a name gives are not always drawn. Like-named read-outs stand apart in the source and are kept apart here.

Experiments:
FGFR4 = target: T1, FGFR4 (Homo sapiens, UniProt P22455); experiment: Kinase binding assay (kinase-tagged T7 phage, affinity beads, qPCR), Kd; conditions: for Kd: read-out: FGFR4 (Kd nM)
T1 construct: made in house; host or cells: E. coli (BL21-derived), T7 phage
T1 sequence (P22455 22-802): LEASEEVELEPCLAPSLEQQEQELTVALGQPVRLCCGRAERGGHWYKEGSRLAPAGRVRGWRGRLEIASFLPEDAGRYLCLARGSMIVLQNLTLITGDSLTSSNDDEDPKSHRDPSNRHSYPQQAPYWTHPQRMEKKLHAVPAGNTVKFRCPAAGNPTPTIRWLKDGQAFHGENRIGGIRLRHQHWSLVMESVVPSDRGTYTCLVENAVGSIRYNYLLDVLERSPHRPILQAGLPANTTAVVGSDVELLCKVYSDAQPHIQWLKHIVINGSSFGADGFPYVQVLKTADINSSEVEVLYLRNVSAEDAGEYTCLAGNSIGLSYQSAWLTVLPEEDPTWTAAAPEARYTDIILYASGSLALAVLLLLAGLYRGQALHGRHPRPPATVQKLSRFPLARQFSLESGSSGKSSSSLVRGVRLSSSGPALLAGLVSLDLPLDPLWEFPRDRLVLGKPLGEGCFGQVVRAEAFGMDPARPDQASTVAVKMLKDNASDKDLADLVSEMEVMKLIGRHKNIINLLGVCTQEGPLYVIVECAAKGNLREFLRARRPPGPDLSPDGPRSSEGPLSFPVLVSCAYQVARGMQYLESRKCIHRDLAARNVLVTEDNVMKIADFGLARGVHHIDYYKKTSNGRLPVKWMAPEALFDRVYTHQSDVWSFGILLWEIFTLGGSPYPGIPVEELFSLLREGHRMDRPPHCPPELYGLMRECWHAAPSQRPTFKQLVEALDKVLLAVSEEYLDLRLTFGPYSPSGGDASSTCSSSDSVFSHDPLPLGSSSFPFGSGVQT
Summary of the method: (§1)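 Phage-tagged kinase capture on small-molecule affinity resin, compound competition, qPCR quantitation; Kd from Levenberg-Marquardt Hill fit.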

FGFR3 = target: T2, FGFR3 (Homo sapiens, UniProt P22607); experiment: as above; conditions: for Kd: read-out: FGFR3 (Kd nM)
T2 construct: made in house; host or cells: E. coli (BL21-derived), T7 phage
T2 sequence (P22607 23-806): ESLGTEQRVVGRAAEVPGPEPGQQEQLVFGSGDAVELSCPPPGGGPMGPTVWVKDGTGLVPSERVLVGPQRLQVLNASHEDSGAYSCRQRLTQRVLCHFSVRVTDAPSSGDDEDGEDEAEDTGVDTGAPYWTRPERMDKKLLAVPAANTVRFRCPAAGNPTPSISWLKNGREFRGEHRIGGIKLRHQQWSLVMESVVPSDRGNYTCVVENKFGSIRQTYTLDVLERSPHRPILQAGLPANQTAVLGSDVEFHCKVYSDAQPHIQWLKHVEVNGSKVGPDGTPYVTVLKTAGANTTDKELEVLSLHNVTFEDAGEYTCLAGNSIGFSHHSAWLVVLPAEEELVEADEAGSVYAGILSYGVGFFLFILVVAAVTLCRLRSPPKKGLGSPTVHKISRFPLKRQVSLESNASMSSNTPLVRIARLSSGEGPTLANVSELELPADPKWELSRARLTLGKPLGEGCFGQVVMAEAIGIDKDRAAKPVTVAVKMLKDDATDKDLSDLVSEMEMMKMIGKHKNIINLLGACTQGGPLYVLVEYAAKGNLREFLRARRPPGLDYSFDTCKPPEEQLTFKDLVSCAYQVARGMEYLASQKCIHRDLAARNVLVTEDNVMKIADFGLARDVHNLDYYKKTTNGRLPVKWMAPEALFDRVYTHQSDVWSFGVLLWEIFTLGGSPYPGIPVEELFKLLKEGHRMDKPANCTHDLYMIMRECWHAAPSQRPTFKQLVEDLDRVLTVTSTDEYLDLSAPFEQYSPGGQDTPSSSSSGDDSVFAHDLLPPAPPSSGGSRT
Summary of the method: as §1

FGFR3 (V555M) = target: T3, FGFR3 (V555M) (Homo sapiens, UniProt P22607, V555M); experiment: as above; conditions: for Kd: V555M mutant, read-out: FGFR3 (V555M) (Kd nM)
T3 construct: made in house; host or cells: E. coli (BL21-derived), T7 phage
T3 sequence (P22607 23-806 V555M): as the sequence (P22607 23-806) above, with V533M counted along it
Summary of the method: as §1

FGFR1 = target: T4, FGFR1 (Homo sapiens, UniProt P11362); experiment: as above; conditions: for Kd: read-out: FGFR1 (Kd nM)
T4 construct: made in house; host or cells: E. coli (BL21-derived), T7 phage
T4 sequence (P11362 22-822): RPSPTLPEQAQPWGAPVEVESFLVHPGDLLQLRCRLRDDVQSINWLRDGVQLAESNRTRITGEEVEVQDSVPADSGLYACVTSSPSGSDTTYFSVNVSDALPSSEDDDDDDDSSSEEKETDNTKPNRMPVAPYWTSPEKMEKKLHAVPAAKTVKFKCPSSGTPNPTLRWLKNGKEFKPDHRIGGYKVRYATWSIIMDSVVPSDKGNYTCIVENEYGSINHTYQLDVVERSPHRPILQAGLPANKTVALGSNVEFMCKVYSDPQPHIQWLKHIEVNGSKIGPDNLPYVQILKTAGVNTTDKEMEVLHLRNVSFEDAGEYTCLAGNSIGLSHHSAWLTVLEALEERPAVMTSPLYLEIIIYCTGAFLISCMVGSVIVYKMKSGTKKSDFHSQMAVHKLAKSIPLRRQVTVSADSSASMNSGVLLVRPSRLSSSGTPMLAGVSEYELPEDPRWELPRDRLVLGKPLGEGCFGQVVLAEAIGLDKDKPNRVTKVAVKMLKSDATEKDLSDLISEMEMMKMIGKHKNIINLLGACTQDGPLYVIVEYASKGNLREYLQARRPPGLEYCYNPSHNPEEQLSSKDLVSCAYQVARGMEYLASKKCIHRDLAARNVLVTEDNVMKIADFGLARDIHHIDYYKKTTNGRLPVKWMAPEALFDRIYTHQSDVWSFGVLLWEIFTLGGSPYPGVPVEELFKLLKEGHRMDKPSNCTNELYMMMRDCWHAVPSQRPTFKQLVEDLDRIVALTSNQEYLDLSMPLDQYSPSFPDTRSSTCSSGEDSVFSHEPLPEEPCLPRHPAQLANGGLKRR
Summary of the method: as §1

FGFR2 = target: T5, FGFR2 (Homo sapiens, UniProt P21802); experiment: as above
T5 construct: made in house; host or cells: E. coli (BL21-derived), T7 phage
T5 sequence (P21802 22-821): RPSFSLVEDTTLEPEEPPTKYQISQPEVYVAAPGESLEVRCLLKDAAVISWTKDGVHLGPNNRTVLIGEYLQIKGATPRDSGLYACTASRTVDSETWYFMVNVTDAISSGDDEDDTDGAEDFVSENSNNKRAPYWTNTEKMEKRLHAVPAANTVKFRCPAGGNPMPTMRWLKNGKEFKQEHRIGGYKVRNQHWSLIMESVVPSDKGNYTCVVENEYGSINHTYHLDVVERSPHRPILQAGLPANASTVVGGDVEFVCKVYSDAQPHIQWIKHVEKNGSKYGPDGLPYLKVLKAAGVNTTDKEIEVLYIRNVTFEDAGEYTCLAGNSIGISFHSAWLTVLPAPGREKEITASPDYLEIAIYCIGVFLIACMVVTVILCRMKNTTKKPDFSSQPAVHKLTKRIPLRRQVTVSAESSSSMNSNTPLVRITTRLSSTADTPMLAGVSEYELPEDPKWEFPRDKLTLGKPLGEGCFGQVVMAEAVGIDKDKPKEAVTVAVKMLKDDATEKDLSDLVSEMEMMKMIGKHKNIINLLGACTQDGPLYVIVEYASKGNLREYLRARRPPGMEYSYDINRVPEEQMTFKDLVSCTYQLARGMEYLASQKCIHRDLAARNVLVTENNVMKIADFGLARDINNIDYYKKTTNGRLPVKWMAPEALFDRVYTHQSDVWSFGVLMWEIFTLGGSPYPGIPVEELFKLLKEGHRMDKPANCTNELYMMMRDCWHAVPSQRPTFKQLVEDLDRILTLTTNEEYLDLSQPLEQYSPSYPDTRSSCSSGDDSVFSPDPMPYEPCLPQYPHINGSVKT
Summary of the method: as §1

[1] = system: RT112/84 cell line (FGFR3-fusion); experiment: Cancer cell line cell viability assay (Cell Titer-Glo), 72 hr; assay type: cell-based; conditions: Homo sapiens
Summary of the method: (§2)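 Luminescent ATP read-out (Cell Titer-Glo 2.0) after compound exposure, normalised to DMSO-only wells. Dosing: 9 concentrations, 4-fold steps, top 3 μM, triplicates. IC50 derived by log(inhibitor) vs. response 4-parameter fit.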

[2] = system: KATO-III cell line (FGFR2 amplification); experiment: as above; assay type: cell-based; conditions: Homo sapiens
Summary of the method: as §2

[3] = system: KG-1 cell line (FGFR 1-fusion); experiment: as above; assay type: cell-based; conditions: Homo sapiens
Summary of the method: as §2

[4] = system: HuH7 cell line (FGF19 amplification); experiment: Cancer cell line cell viability assay (Cell Titer-Glo), 120 hr; assay type: cell-based; conditions: Homo sapiens, Huh-7
Text: Experimental Purpose: To detect the change of intracellular ATP by Cell Titer-Glo® and to evaluate the inhibitory effect of the compounds on cancer cell lines by determining the in vitro IC50 value of the compounds.
Cell Titer-Glo® 2.0 Luminescent cell viability assay reagent was purchased from Promega (Madison, WI). KG-1, KATO-III, and MDA-MB-453 cell lines were purchased from American Type Culture Collection (Manassas, VA). RT112/84 cell line was purchased from Millipore-Sigma (St. Louis, MO). HuH7 cells were purchased from Seikisui Xenotech (Kansas City, KS). RT112/84 and MDA-MB-453 cells were cultured in RPMI1640 media supplemented with 10% fetal bovine serum. KG-1 and KATO-III cell lines were cultured in IMDM media supplemented with 20% FBS. HuH7 cells were cultured in IMDM media supplemented with 10% FBS. Cultures were maintained at 37° C. in a humidified atmosphere of 5% CO2 and 95% air.
Cell Viability Assay Procedure: Cells were plated in 96-well clear bottom/white plates (Corning #3903) at a range of densities depending on the optimal assay window (5,000-20,000 cells/well in […] of media), incubated overnight. The next day, test compound DMSO stock solutions were made at 10 mM and […] final concentration. Compounds were then added to cells in a 9-dose, 4-fold dilution series starting at 3 μM with an HP 300e Digital Dispenser (each dose was applied in triplicate). DMSO was backfilled to each well up to 301 nL total volume of test compound+DMSO, and a total of 301 nL DMSO was added to a control/no test compound well in triplicate. The cells in cell culture plates were incubated with the compounds at 37° C. and 5% CO2 for 72 hours-120 hours depending on the cell line. Then 50 μl of Cell Titer Glo 2.0 reagent was added to each well of the cell culture plates. The contents were covered from light and mixed on an orbital shaker at room temperature for minimum of 10 min. Luminescence was recorded by a Clariostar Plus Microplate Reader (BMG Labtech, Cary, NC). Cells were assessed as a percentage of DMSO only treated control cells. Curves were plotted and IC50 values were calculated using the GraphPad Prism 9 program based on a sigmoidal dose-response equation (log (inhibitor) vs. response—Variable slope, 4-parameter).

[5] = RT112/84, RT112/84 cell line (FGFR3-fusion)
[6] = KG-1, KG-1 cell line (FGFR1-fusion)
[7] = RT112/84 cell line (FGFR3-fusion)

Row | Compound | Kd (FGFR4) [nM] | Kd (FGFR3) [nM] | Kd (FGFR3 (V555M)) [nM] | Kd (FGFR1) [nM] | Kd (FGFR2; read-out: FGFR2 (Kd nM)) [nM] | pIC50 [1, 5] | pIC50 ([2]; KATO III) | pIC50 [3, 6] | pIC50 [1, 7] | pIC50 [2] | pIC50 ([3]; KG-1 cell line (FGFR1-fusion)) | pKd (FGFR4) | pKd (FGFR3) | pKd (FGFR3 (V555M)) | pKd (FGFR1) | Kd (FGFR2; FGFR2 (Kd nM)) [nM] | pIC50 [4]
1 | C[C@H]1CN(C2(C)CN(c3ccc(-c4n[nH]c5ccc(O[C@H](C)c6c(Cl)cncc6Cl)cc45)cn3)C2)CCO1 [Example 212, (S)-4-(1-(5-(5-((R)-1-(3,5-dichloropyridin-4-yl)ethoxy)-1H-indazol-3-yl)pyridin-2-yl)-3-methylazetidin-3-yl)-2-methylmorpholine] | 1 to 50 | 1 to 50 | 1 to 50 | 1 to 50 | 1 to 50 | 7.30 to 10.00 | 7.30 to 10.00 | 6.70 to 7.30 |  |  |  |  |  |  |  |  | 
2 | C[C@@H]1CN(C2(C)CN(c3ncc(-c4n[nH]c5ccc(O[C@H](C)c6c(Cl)cncc6Cl)cc45)cc3F)C2)CCO1 [Example 213, (R)-4-(1-(5-(5-((R)-1-(3,5-dichloropyridin-4-yl)ethoxy)-1H-indazol-3-yl)-3-fluoropyridin-2-yl)-3-methylazetidin-3-yl)-2-methylmorpholine] | 1 to 50 | 1 to 50 | 1 to 50 | 1 to 50 | 1 to 50 | 7.30 to 10.00 | 6.70 to 7.30 | 6.00 to 6.70 |  |  |  |  |  |  |  |  | 
3 | COP(=O)(CC1(C)CN(c2ccc(-c3n[nH]c4ccc(O[C@H](C)c5c(Cl)cncc5Cl)cc34)cn2)C1)OC [Example 214, (R)-dimethyl ((1-(5-(5-(1-(3,5-dichloropyridin-4-yl)ethoxy)-1H-indazol-3-yl)pyridin-2-yl)-3-methylazetidin-3-yl)methyl)phosphonate] | 1 to 50 | 1 to 50 | 1 to 50 | 1 to 50 | 1 to 50 |  |  |  | 7.30 to 10.00 | 7.30 to 10.00 | 6.70 to 7.30 |  |  |  |  |  | 
4 | COP(=O)(CC1(C)CN(c2ncc(-c3n[nH]c4ccc(O[C@H](C)c5c(Cl)cncc5Cl)cc34)cc2F)C1)OC [Example 215, (R)-dimethyl ((1-(5-(5-(1-(3,5-dichloropyridin-4-yl)ethoxy)-1H-indazol-3-yl)-3-fluoropyridin-2-yl)-3-methylazetidin-3-yl)methyl)phos-phonate] |  |  |  |  |  |  |  |  | 7.30 to 10.00 | 6.70 to 7.30 | 6.70 to 7.30 | 7.30 to 9.00 | 7.30 to 9.00 | 7.30 to 9.00 | 7.30 to 9.00 | 1 to 50 | 
5 | C[C@H]1CN(C2(C)CN(c3ncc(-c4n[nH]c5ccc(O[C@H](C)c6c(Cl)cncc6Cl)cc45)cc3F)C2)CCO1 [Example 216, (S)-4-(1-(5-(5-((R)-1-(3,5-dichloropyridin-4-yl)ethoxy)-1H-indazol-3-yl)-3-fluoropyridin-2-yl)-3-methylazetidin-3-yl)-2-methylmorpholine] | 1 to 50 | 1 to 50 | 1 to 50 | 1 to 50 | 1 to 50 | 7.30 to 10.00 | 6.70 to 7.30 | 6.70 to 7.30 |  |  |  |  |  |  |  |  | 
6 | C[C@@H](Oc1ccc2[nH]nc(-c3cnc(N4CC(C)(N5CC6CC(C5)O6)C4)c(F)c3)c2c1)c1c(Cl)cncc1Cl [Example 217, 3-(1-(5-(5-((R)-1-(3,5-dichloropyridin-4-yl)ethoxy)-1H-indazol-3-yl)-3-fluoropyridin-2-yl)-3-methylazetidin-3-yl)-6-oxa-3-aza-bicyclo[3.1.1]hep-tane] | 1 to 50 | 1 to 50 | 1 to 50 | 1 to 50 | 1 to 50 | 7.30 to 10.00 | 7.30 to 10.00 | 6.70 to 7.30 |  |  |  |  |  |  |  |  | 
7 | C[C@@H](Oc1ccc2[nH]nc(-c3cnc(N4CC(C)(N5C[C@@H]6C[C@H]5CO6)C4)c(F)c3)c2c1)c1c(Cl)cncc1Cl [Example 218, (1S,4S)-5-(1-(5-(5-((R)-1-(3,5-dichloropyridin-4-yl)ethoxy)-1H-indazol-3-yl)-3-fluoropyridin-2-yl)-3-methylazetidin-3-yl)-2-oxa-5-aza-bicyclo[2.2.1]hep-tane] | 1 to 50 | 1 to 50 | 1 to 50 | 1 to 50 | 1 to 50 | 7.30 to 10.00 | 7.30 to 10.00 | 7.30 to 10.00 |  |  |  |  |  |  |  |  | 
8 | C[C@@H](Oc1ccc2[nH]nc(-c3ccc(N4CC(C)(N5CC6CC(C5)O6)C4)nc3)c2c1)c1c(Cl)cncc1Cl [Example 222, 3-(1-(5-(5-((R)-1-(3,5-dichloropyridin-4-yl)ethoxy)-1H-indazol-3-yl)pyridin-2-yl)-3-methylazetidin-3-yl)-6-oxa-3-aza-bicyclo[3.1.1]hep-tane] | 1 to 50 | 1 to 50 | 1 to 50 | 1 to 50 | 1 to 50 | 7.30 to 10.00 | 7.30 to 10.00 | 7.30 to 10.00 |  |  |  |  |  |  |  |  | 
9 | C[C@@H](Oc1ccc2[nH]nc(-c3cnc(N4CC(C)(N5C[C@H]6C[C@@H]5CO6)C4)c(F)c3)c2c1)c1c(Cl)cncc1Cl [Example 223, (1R,4R)-5-(1-(5-(5-((R)-1-(3,5-dichloropyridin-4-yl)ethoxy)-1H-indazol-3-yl)-3-fluoropyridin-2-yl)-3-methylazetidin-3-yl)-2-oxa-5-aza-bicyclo[2.2.1]hep-tane] | 1 to 50 | 1 to 50 | 1 to 50 | 1 to 50 | 1 to 50 | 7.30 to 10.00 | 7.30 to 10.00 | 6.70 to 7.30 |  |  |  |  |  |  |  |  | 
10 | C=CCNC1(C)CN(c2ccc(-c3n[nH]c4ccc(O[C@H](C)c5c(Cl)cncc5Cl)cc34)cn2)C1 [Example 232, (R)-N-ally1-1-(5-(5-(1-(3,5-dichloropyridin-4-yl)ethoxy)-1H-indazol-3-yl)pyridin-2-yl)-3-methylazetidin-3-amine] | 1 to 50 | 1 to 50 | 1 to 50 | 1 to 50 | 1 to 50 | 7.30 to 10.00 | 7.30 to 10.00 | 6.70 to 7.30 |  |  |  |  |  |  |  |  | 
11 | CCNC1(C)CN(c2ncc(-c3n[nH]c4cc(OC)c(O[C@H](C)c5c(Cl)cncc5Cl)cc34)cc2C#N)C1 [Example 341, (R)-5-(5-(1-(3,5-Dichloropyridin-4-yl)ethoxy)-6-methoxy-1H-indazol-3-yl)-2-(3-(ethylamino)-3-methylazetidin-1-yl)nicotinonitrile HCl] | 1 to 50 | 1 to 50 | 1 to 50 | 1 to 50 | 1 to 50 | 7.30 to 10.00 | 6.70 to 7.30 | 7.30 to 10.00 |  |  |  |  |  |  |  |  | 
12 | COc1cc2[nH]nc(-c3cc(C#N)c(N4CC(C)(NCC(C)C)C4)nn3)c2cc1O[C@H](C)c1c(Cl)cncc1Cl [Example 342, (R)-6-(5-(1-(3,5-dichloropyridin-4-yl)ethoxy)-6-methoxy-1H-indazol-3-yl)-3-(3-(isobutylamino)-3-methylazetidin-1-yl)pyridazine-4-carbonitrile] | 1 to 50 | 1 to 50 |  | 1 to 50 | 1 to 50 |  |  |  |  |  |  |  |  |  |  |  | 6.70 to 7.30
13 | COc1cc2[nH]nc(-c3cnc(N4CCC(C)(NCC5CC5)CC4)c(C#N)c3)c2cc1O[C@H](C)c1c(Cl)cncc1Cl [Example 411, (R)-2-(4-((cyclo-propylmethyl)amino)-4-methylpiperidin-1-yl)-5-(5-(1-(3,5-dichloropyridin-4-yl)ethoxy)-6-methoxy-1H-indazol-3-yl)nicotinonitrile] |  |  |  |  |  |  |  |  |  |  |  |  |  |  |  |  | 7.30 to 10.00
